Here are results for 6 molecules from paper PMC7948737, “Structures and mechanism of human glycosyltransferase β1,3-N-acetylglucosaminyltransferase 2 (B3GNT2), an important player in immune homeostasis” (The Journal of Biological Chemistry, 2020).

By Kd is commonly meant a measure of binding affinity in units of concentration. A lower Kd goes with a tighter complex. Usually stoichiometry N stands for a count of units in the complex or per binding partner.

In series [1] the target is T1, β1,3-N-acetylglucosaminyltransferase 2 (B3GNT2) (Homo sapiens, UniProt Q9NY97).
T1 construct: luminal domain, Lys45-Cys397 (crystal); Lys29-Cys397 (kinetics)
T1 sequence (Q9NY97 29-397): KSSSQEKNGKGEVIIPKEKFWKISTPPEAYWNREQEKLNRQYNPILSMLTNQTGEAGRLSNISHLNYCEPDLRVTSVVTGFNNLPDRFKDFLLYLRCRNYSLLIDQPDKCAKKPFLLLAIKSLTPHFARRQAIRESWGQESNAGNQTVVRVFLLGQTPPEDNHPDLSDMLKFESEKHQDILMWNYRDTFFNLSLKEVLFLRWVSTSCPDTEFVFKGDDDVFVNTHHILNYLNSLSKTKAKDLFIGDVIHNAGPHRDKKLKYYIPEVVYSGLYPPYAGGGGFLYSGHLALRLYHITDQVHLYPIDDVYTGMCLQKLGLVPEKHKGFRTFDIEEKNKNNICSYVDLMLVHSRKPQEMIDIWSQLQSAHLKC
Description: crystal structure ([…] Å, soak); binary-complex dissociation constant from UDP-Glo kinetics. It counts as biochemical.

Series [2] concerns the target T2, β1,3-N-acetylglucosaminyltransferase 2 (B3GNT2) (Homo sapiens, UniProt Q9NY97).
T2 construct: luminal domain, Lys45-Cys397 (crystal)
T2 sequence (Q9NY97 45-397): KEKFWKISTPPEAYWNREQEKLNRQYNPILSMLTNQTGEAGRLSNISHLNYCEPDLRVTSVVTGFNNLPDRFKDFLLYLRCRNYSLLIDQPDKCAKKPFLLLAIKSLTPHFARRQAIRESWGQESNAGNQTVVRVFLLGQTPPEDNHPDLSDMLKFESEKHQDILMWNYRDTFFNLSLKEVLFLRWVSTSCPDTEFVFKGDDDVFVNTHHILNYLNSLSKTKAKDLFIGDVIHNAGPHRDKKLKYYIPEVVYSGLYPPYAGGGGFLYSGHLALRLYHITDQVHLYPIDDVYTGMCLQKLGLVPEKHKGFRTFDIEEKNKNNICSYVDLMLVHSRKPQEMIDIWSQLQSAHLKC
The experiment in a line: crystal structure ([…] Å, soak) and SPR steady-state affinity. The class given is binding.

Series [3] concerns the target T2, β1,3-N-acetylglucosaminyltransferase 2 (B3GNT2). The experiment in a line: crystal structure ([…] Å) and SPR steady-state affinity. It counts as binding.
The target of series [4] is human B3GNT2 luminal domain (construct of the analytical size exclusion chromatography, limits not told) (human). The experiment in a line: SEC; analytical size exclusion chromatography, Superdex 200 10/300, 20 mM Hepes-NaOH pH 7.5 with 150 mM NaCl (buffer C) or 250 mM NaCl, 50 mM imidazole, 1 mM MgCl2, 0.5 mM DTT (buffer D); Bio-Rad molecular weight standards. A general note: Size exclusion chromatography separates by hydrodynamic size, large species first.

Series [5] deals with the molecule itself. Description: crystal structure; sitting/hanging-drop vapor diffusion at 4 °C, 24% PEG1500, 20% glycerol; apo, soaked or co-crystallised with UDP, UDP-GlcNAc, LacNAc; dimer related by crystallographic symmetry.

Molecule `CC(=O)N[C@H]1C(O)O[C@H](CO)[C@@H](O[C@@H]2O[C@H](CO)[C@H](O)[C@H](O)[C@H]2O)[C@@H]1O` (stereo partly drawn) [LacNAc] showed a Kd in series [1] of 8990 ± 1750 µM.
Take `CC(=O)N[C@H]1[C@@H](OP(=O)(O)OP(=O)(O)OC[C@H]2O[C@@H](n3ccc(=O)[nH]c3=O)[C@H](O)[C@@H]2O)O[C@H](CO)[C@@H](O)[C@@H]1O` [UDP-GlcNAc]: in series [2], the dissociation constant Kd was approximately 140 µM.
With `O=c1ccn([C@@H]2O[C@H](COP(=O)(O)OP(=O)(O)O)[C@@H](O)[C@H]2O)c(=O)[nH]1` [UDP], in series [3], the Kd is approximately 260 µM.
On to “human B3GNT2 luminal domain (construct of the analytical size exclusion chromatography, limits not told) (domain or fragment)”, for which, in series [4], the stoichiometry N was 2.

B1: human B3GNT2 luminal domain (Lys45–Cys397) (domain or fragment, UniProt Q9NY97 45-397, looked up)
chain: T2 sequence (Q9NY97 45-397)
modifications: N-glycans assigned at Asn127, Asn173 and Asn219
notes: human B3GNT2 (β-1,3-N-acetylglucosaminyltransferase 2), UniProt Q9NY97, luminal domain, residues Lys45–Cys397; Expressed with an N-terminal gp64 secretion signal peptide; 8×His tag cleaved by TEV protease; Used for all structures except the iodide derivative; also called B3GNT2 Lys45-Cys397; B3GNT2_apo; source: sf9 cells (baculovirus), secreted into medium, purified (Ni-NTA, size exclusion …)
On to B1, for which, in series [5], the binding result is “binds”.

B2: human B3GNT2 luminal domain (Ser31–Cys397) (domain or fragment, UniProt Q9NY97 31-397, looked up)
chain: SSQEKNGKGEVIIPKEKFWKISTPPEAYWNREQEKLNRQYNPILSMLTNQTGEAGRLSNISHLNYCEPDLRVTSVVTGFNNLPDRFKDFLLYLRCRNYSLLIDQPDKCAKKPFLLLAIKSLTPHFARRQAIRESWGQESNAGNQTVVRVFLLGQTPPEDNHPDLSDMLKFESEKHQDILMWNYRDTFFNLSLKEVLFLRWVSTSCPDTEFVFKGDDDVFVNTHHILNYLNSLSKTKAKDLFIGDVIHNAGPHRDKKLKYYIPEVVYSGLYPPYAGGGGFLYSGHLALRLYHITDQVHLYPIDDVYTGMCLQKLGLVPEKHKGFRTFDIEEKNKNNICSYVDLMLVHSRKPQEMIDIWSQLQSAHLKC
modifications: N-glycans assigned at Asn127, Asn173 and Asn219
notes: human B3GNT2 (β-1,3-N-acetylglucosaminyltransferase 2), UniProt Q9NY97, luminal domain, residues Ser31–Cys397; Expressed with an N-terminal gp64 secretion signal peptide; 8×His tag cleaved by TEV protease; Used for the iodide derivative structure (SAD phasing, 2.50 Å); also called B3GNT2 Ser31-Cys397; iodide derivative; source: sf9 cells (baculovirus), secreted into medium, purified (Ni-NTA, size …)
Turning to B2, the binding result in series [5] is given as “binds”.
